Test results as given in patent US20220249596A1, “PIC1 PEPTIDE COMPOSITIONS AND METHODS OF USE THEREOF FOR TREATMENT OF HYPOXIC ISCHEMIC ENCEPHALOPATHY” (REALTA HOLDINGS, LLC, priority 2019, published 2022).
“Also recorded” adds a separate entry of the source. No end group written: not given here.

How the values were obtained:
Type in all cases: in vivo, rat
[1] = test system: C1q; test: Systemic C1q level in plasma, fluorescent immunoassay; conditions: 8, 12 and 24 hours after initial insult, P<0.05
Description: The local and systemic effects of NT, HT and PIC1 treatment on the complement cascade were measured. CNS C1q levels and systemic C1q and C5a levels were measured using a fluorescent immunoassay.
Systemic C1q and C5a levels were measured as follows. 100 μl of 1:5 plasma in 1×PBS was added to the wells of a plate described above and incubated overnight at 4° C. The plates were washed 3 times with PBST and blocked with NDS or NGS for one hour. Samples were probed with either 1:50 goat anti-human C1q (Complement Technology) in NDS or 1:200 mouse anti-human C5a (Human Complement Component C5a DuoSet ELISA, R&D Systems, Inc., Minneapolis, Minn.) in NGS for one hour at RT. The wells were washed and 1:500 donkey anti-goat 488 (Life Technologies) in NDS or 1:500 goat anti-mouse AF 568 (Life Technologies) in NGS was added, and incubated for one hour at RT. The wells were washed and the plate read using a Synergy HT (BioTek). Systemic C3a levels in plasma (1:20 dilution) were measured using a standard ELISA, according to the manufacturer's instructions (Rat C3a ELISA Kit, TSZ ELISA, Waltham, Mass.).

[2] = Beam walk assay, fine motor coordination and balance; conditions: versus NT animals
Description: Fine motor coordination and balance was assessed by a beam walk assay, which was performed as follows. Gross motor function and balance was evaluated using the beam walking test 6 weeks after HIE. Beams of varying widths (19 mm, 13 mm, or 6 mm) were used that led to a dark escape box. Each beam was 90 cm long and elevated 60 cm from the ground. The goal of this test is for the rat to stay upright and walk across elevated narrow beams of decreasing width (0.75 and 0.25 inches, or 19 mm and 6 mm) to a safe platform.
Rats were placed on a loading platform on the proximal end of the apparatus, and instinctively walked towards the box when placed on a beam. Rats were trained on each beam prior to the test. On the test day, rats were placed on the loading platform, and videos were recorded. Rats were given up to 5 attempts to cross each beam. Failures, i.e., inability to cross along with right and left foot slips, were analyzed by an investigator blinded to the treatment

[3] = test system: brain lesion after hypoxia/ischemia; test: T2 MRI for brain tissue viability, lesion volume and edema
Description: Neonatal hypoxia/ischemia was induced in Wistar rat pups (age of 10±1 days, P10) according to Rice et al. (1981) and with modifications. Rat pups were anesthetized with 5% isoflurane (in 70% N2O and 30% O2; flow 300 ml/min). During the operation the concentration of anesthetic was reduced to 1.0-1.5% to maintain adequate level of anesthesia. The rectal temperature was maintained at 37.0±1.5° C. with a homeothermic blanket system (Harvard Apparatus, UK). Just before first incision, pups received buprenorphine 0.03 mg/kg i.p. After midline skin incision, the right common carotid artery (CCA) was exposed and permanently ligated distal from the carotid bifurcation. Thereafter the wound was closed, disinfected, and the animals were allowed to recover from anesthesia for 1 hour before subjecting them to hypoxic conditions. Pups were carefully monitored for possible post-surgical complications. An additional dose of buprenorphine 0.03 mg/kg was administered s.c. twice a day during the first 48 hours post-surgery.
Therma-treatment (6 hours) was started 1 hour post-hypoxia, to maintain normothermia (36+/−1° C. rat internal temperature) or hypothermia (31° C.+/−1 rat internal temperature), as follows. After CCA ligation, suturing and recovery for 1 h, pups were placed into chamber submerged to heated (+37° C.) water bath. Chamber was ventilated with heated (gas lines submerged to +37° C. water) mixture of 8% O2/92% N2 while pups were subjected to hypoxia. During the hypoxia period, chamber inner temperature was monitored. Pups were kept under hypoxic conditions for 60 minutes, except in group 5. In all pups the rectal temperature was monitored to ensure normothermic body temperature during hypoxia exposure. Rectal temperature after the H/I period was measured and recorded at the end of the exposure.
No other preparation was needed. The thawed tubes were kept on ice until dosing. […]
Brain tissue viability was performed as follows. Lesion T2 and Control T2 values (in milliseconds) were measured at 24 hours and 21 days after H/I, and the data are shown as average. […]

IALILEPICCQERAA-dPEG24 (cysteine pairing not given here) [PIC1]
C1q levels in plasma, NT animals relative to PIC1-treated animals [1]: significantly higher
beam walk performance ([2]; 0.25 inch beam): performed significantly better
beam walk performance ([2]; 0.75 inch beam): performed significantly better
lesion volume in MRI ([3]; 24 hours, pooled genders, H/I+PIC1+hypo versus H/I+hypo, p<0.05): reduction; also recorded: significant difference
edema (%) in MRI ([3]; 21 days, pooled genders, H/I+PIC1+normo versus H/I+hypo, p<0.01): reduction
control T2 value ([3]; contralateral cortex, between study groups, pooled or separated genders): no changes; also recorded: No statistical significances
